Series [1] concerns the target T1, 5-HT6 receptor (Homo sapiens, UniProt P50406). The note with it: 5-HT6 receptor (Sleight, 1998); cited from earlier work.
The conditions of series [2]: Sleight, 1998; cited from earlier work.
For series [3] the following is noted: Rogers, 1999; cited from earlier work.
Series [4] concerns the target T1, 5-HT6 receptor. The series is described as follows: In vitro affinity for human 5-HT6 receptors, [3H]-LSD binding in CHO cell membranes. The note with it: [3H]-LSD 5.0 nM, membranes of CHO cells transfected with human 5-HT6; read-out: 5-HT6 pKi (converted). Further details: host or cells: CHO/Gα16/mtAEQ/h5HT6-A1 (CHO AequoScreen recombinant cell line).
Experimental: Affinity for human 5-HT6 receptors was measured in a membrane preparation of CHO-cells transfected with human 5-HT6 receptors by binding studies using [^3H]-N-Methyl-Lysergic acid diethylamide ([^3H]-LSD) as ligand. […] CHO/Gα16/mtAEQ/h5HT6-A1 cells were grown in T-flasks in CHO-S-SFM II medium (Gibco BRL), supplemented with 1% dialysed FCS, 2 mM L-glutamine, Geneticin 500 μg/ml and Zeocin 200 μg/ml. […] After thawing cells were centrifuged during 3 minutes at 1500 g at 4° C. […] The assay was established so as to achieve steady state conditions and to optimize specific binding. For the 5-HT6 receptor, membranes from 5.10^5 cells were incubated with 5.0 nM [^3H]-LSD at 37° C. for 30 minutes. Nonspecific binding was determined using 10^−5 M serotonin. Assays were terminated by vacuum filtration through glass fiber filters (GF/B) which had been pretreated with 0.5% polyethyleneimine. Total and bound radioactivity was determined by liquid scintillation counting. […] Compounds were tested at a 4 log concentration range; all determinations were performed as triplicates. IC50 values were determined by non-linear regression analysis using Hill equation curve fitting. The inhibition constants (Ki-values) were calculated from the Cheng-Preushoff equation: Ki=IC50:(1+L/Kd) wherein L represents the concentration radioligand ([^3H]-LSD) in the assay, and Kd the affinity of the radioligand for the receptor. Results are expressed as pKi-values, means±SD of at least three separate experiments.
Series [5] addresses T1, 5-HT6 receptor. Nature of the series: In vitro functional activity (antagonism) on human 5-HT6 receptors, CHO-human-5HT6-Aequorin assay. On the set-up: host or cells: CHO/Gα16/mtAEQ/h5HT6-A1 (CHO AequoScreen recombinant cell line). Type of series: cell-based.
Experimental: Human-5-HT6-Aequorin cells express mitochondrial targeted apo-Aequorin. Cells have to be loaded with coelanterazine, in order to reconstitute active Aequorin. […] This luminescent response is dependent on the agonist concentration. Luminescence is measured using the MicroBeta Jet (Perkin Elmer). Agonistic effects of compounds are expressed as pEC50. […] Compounds were tested at a 5 log concentration range, and 3 independent experiments were performed in duplicate.
Where [6] appears, read: antagonism of 10^-8 M α-methylserotonin induced luminescence, CHO-human-5HT6-Aequorin cells, read-out: 5-HT6 pA2 (converted).

Structures are written as SMILES. Read-outs that look alike come from different tables or passages of the source.

T1 sequence (P50406 whole entry): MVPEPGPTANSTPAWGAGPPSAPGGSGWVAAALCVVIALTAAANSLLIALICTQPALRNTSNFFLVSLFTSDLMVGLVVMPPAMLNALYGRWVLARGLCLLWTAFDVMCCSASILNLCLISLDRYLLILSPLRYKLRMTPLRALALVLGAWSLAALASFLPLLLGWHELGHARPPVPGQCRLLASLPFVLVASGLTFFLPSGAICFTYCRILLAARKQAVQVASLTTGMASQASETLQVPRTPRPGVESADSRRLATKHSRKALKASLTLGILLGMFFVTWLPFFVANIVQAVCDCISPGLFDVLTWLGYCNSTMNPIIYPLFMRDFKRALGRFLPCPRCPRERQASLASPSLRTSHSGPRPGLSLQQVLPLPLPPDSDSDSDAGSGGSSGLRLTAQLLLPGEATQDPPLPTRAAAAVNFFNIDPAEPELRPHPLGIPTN

On to `CNc1cc(NS(=O)(=O)c2ccc(N)cc2)nc(NC)n1` [Ro 04-6790], for which, on 5-HT6 receptor [1], the Ki was 0.05 µM. Also, the pharmacokinetics entry in series [2] is on record as “poor”. Take `CNc1cc(NS(=O)(=O)c2ccc(N)cc2)cc(NC)n1` [Ro 63-0563]: the Ki at 5-HT6 receptor [1] was 0.012 µM. For the same compound, the pharmacokinetics result in series [2] is given as “poor”. For `COc1ccc(NS(=O)(=O)c2sc3ccc(Cl)cc3c2C)cc1N1CCNCC1` [SB-271046], in series [3], the “performance in the Morris water maze” value is reported as “improved performance”. In the case of `CCC1C=NN(/C(=N/S(=O)(=O)c2ccccc2Cl)N2CCNCC2)C1` (centres unmarked) [compound 16], the melting point (in general, the temperature of the solid-liquid transition) fell in the range of 162 to 173 °C. Further, the Ki at 5-HT6 receptor [4] is 0.2 µM. `CCC1C=NN(/C(N)=N/S(=O)(=O)c2ccc(Cl)cc2)C1` (centres unmarked) [compound 30]: the melting point lay in the range of 114 to 115 °C. Also, at 5-HT6 receptor [5] (setting [6]), the Kb was 1.26 µM.

Regarding `N/C(=N\S(=O)(=O)c1ccc(Cl)s1)N1CC2(C=N1)CCCC2` [compound 107], the melting point is 184 °C.

With `CCC1CN(/C(=N/S(=O)(=O)c2cccc(Cl)c2)NC)N=C1C` (centres unmarked) [compound 109], the melting point lay within 155 to 156 °C. Consider `CCC1CN(/C(N)=N/S(=O)(=O)c2cccc(Cl)c2)N=C1C` (centres unmarked) [compound 113], for which the melting point is 121 to 123 °C. Still for that read-out and setting: as for `CCN/C(=N\S(=O)(=O)c1c(Cl)nc2sccn12)N1CC(C)(C)C=N1` [compound 114], the figure is 139 to 141 °C; as for `CC1=NN(/C(N)=N/S(=O)(=O)c2cccc(Cl)c2)CC1(C)C` [compound 115], 135 to 137 °C. In turn, `CC1=NN(/C(N)=N/S(=O)(=O)c2c(Cl)nc3sccn23)CC1(C)C` [compound 117] showed a melting point of 169 to 171 °C. As for `CCC1CN(/C(N)=N/S(=O)(=O)c2ccc(Cl)s2)N=C1C` (centres unmarked) [compound 121], the melting point lay within 155 to 156 °C.

In the case of `CC1(C)C=NN(/C(N)=N/S(=O)(=O)c2c(Cl)nc3sccn23)C1` [compound 127], the melting point was 198 to 199 °C.

With `CCC1CN(/C(N)=N/S(=O)(=O)c2c(Cl)nc3sccn23)N=C1C` (centres unmarked) [compound 130], the melting point lay within 139 to 140 °C. For the same compound, on 5-HT6 receptor [5] (setting [6]), the Kb is 0.00631 µM. In addition, on 5-HT6 receptor [4], the Ki is 0.0794 µM.

In turn, `N/C(=N\S(=O)(=O)c1c(Cl)nc2sccn12)N1CC2(C=N1)CCCC2` [compound 131] came in with a melting point of 174 to 177 °C. Compound `CCN/C(=N\S(=O)(=O)c1c(Cl)nc2sccn12)N1CC2(C=N1)CCCC2` [compound 133] registered a melting point of 146 to 147 °C. For the same compound, at 5-HT6 receptor [5] (setting [6]), the Kb was 0.000158 µM. On 5-HT6 receptor [4], the Ki is 0.00158 µM. `CCN/C(=N\S(=O)(=O)c1ccc(N)cc1)N1CC(CC)C=N1` (centres unmarked) [compound 134] showed a melting point of 122 to 125 °C. Turning to `CN1CCN(/C(=N\S(=O)(=O)c2ccc(F)cc2)N2CCC(c3ccc(Cl)cc3)=N2)CC1` [compound 136], the melting point was in the range of 179 to 184 °C. As for `CN(C)/C(=N\S(=O)(=O)c1ccc(F)cc1)N1CCC(c2ccc(Cl)cc2)=N1` [compound 137], the melting point fell in the range of 149 to 150 °C. As for `CCN/C(=N\S(=O)(=O)c1ccccc1Cl)N1CCC(c2ccccc2)=N1` [compound 138], the melting point was 138 to 140 °C. Moreover, the Ki on 5-HT6 receptor [4] is 0.631 µM. As for `CC1=NN(/C(N)=N/S(=O)(=O)c2cccc(Cl)c2)CC1c1ccccc1` (centres unmarked) [compound 141], the melting point lay within 165 to 166 °C. For the same compound, the Ki on 5-HT6 receptor [4] is 0.158 µM. As to `CCN/C(=N\S(=O)(=O)c1ccccc1Cl)N1N=CCC1c1ccccc1` (centres unmarked) [compound 142], the melting point fell in the range of 164 to 166 °C. Besides, at 5-HT6 receptor [5], the Kb was 0.0501 µM. Regarding `CCN/C(=N\S(=O)(=O)c1cccc(Cl)c1)N1N=CCC1c1ccccc1` (centres unmarked) [compound 143], the melting point was 124 to 126 °C.

`CCN/C(=N\S(=O)(=O)N(C)C)N1CC(CC)C=N1` (centres unmarked) [compound 171] returned a melting point of 60 to 61 °C.

Source of the values: patent publication US8722887B2, “Sulfonylpyrazole and sulfonylpyrazoline carboxamidine derivatives as 5-HT6 antagonists” (Abbvie Bahamas, Ltd., priority 2006, dated 2014).
